{"source": "paper PMC11106956", "about": "(Malaria Journal, 2024)", "key": {"clinical": {"assay": "clinical", "settings": "male, human, plasma, po", "description": "(§1) This study was a part of an open-label, nonrandomized, dose-adjustment trial of the safety of SLD-PQ in G6PD-deficient and G6PD-normal males in Mali without microscopically detected malaria parasite infection. The main clinical trial was separated into two parts, i.e., Part I in adult males (aged 18–50) and Part II in children (aged 5–17). […] Only 28 adult males from the main trial provided pharmacokinetic samples and were included in this study.\n(§2) After collection of day 0 samples, each participant received an oral dose of PQ according to his group assignment, after a fatty snack (biscuits) to minimized gastrointestinal symptoms. The study pharmacist prepared a dose by crushing a 15-mg tablet of PQ (Sanofi, Laval, Canada) in 15 mL of drinking water and administered the dose to the nearest 0.1 mL under direct observation. […] Capillary samples (0.5 mL) were collected at 2, 4, and 6 h post-dose. Both venous and capillary blood were collected using EDTA tubes, and centrifuged at 1100–1300×g for 10–20 min to obtain plasma samples. The samples were store immediately at − 80 °C until analysed.\n(§3) All compounds were analysed using the liquid chromatography–mass spectrometry (LC–MS) method of Avula et al. [14], modified to employ an ACQUITY UHPLC™, BEH Shield RP18 column (100 mm × 2.1 mm I.D., 1.7 mm) equipped with an LC-18 guard column (Vanguard 2.1 × 5 mm, Waters Corp, Milford, MA, USA). PQ, CPQ and PQCG were separated and eluted within 10-min retention time. The mobile phase, run at a flow rate of 0.25 ml/min, consisted of 0.05% formic acid in water (A) water and 0.05% formic acid in acetonitrile (B) and was applied in a linear gradient elution. […] Samples were injected at 10 μL volume. The limits of quantification in plasma were 5 ng/mL for PQ and PQCG, and 1 ng/mL for CPQ. Quality control samples at 20 ng/mL were run at beginning and end of the batch analyses in duplicate. Intra-assay variability was less than 10%.\n(§4) PQ, CPQ, and PQCG concentrations were transformed into their natural logarithms and analysed using a nonlinear mixed-effects modelling approach in NONMEM version 7.4 (Icon Development Solution, Ellicott city, MD). Pirana version 3.0.0 [15], Perl-speaks-NONMEM version 5.3.0 (PsN) [16] and R version 4.2.0 were used for automation, model evaluation, and diagnostics during the model building process. The first-order conditional estimation method with interaction (FOCE-I) was applied for the estimation method. Each compound was modelled separately. Data below the LLOQ was either omitted (M1-method) or incorporated by imputing the first LLOQ data as half of LLOQ (M6-method) [17].\n(§5) Pharmacokinetic parameters were implemented as a log-normal distribution as follows: θi=θTV×expηi,θ where θi is the individual i th pharmacokinetic parameter estimate, θTV is the typical value of the population mean estimate, and ηi,θ is the inter-individual variability of the parameter θ for the i th individual, assumed to be normal distribution with zero mean and variance ω^2 . Estimated inter-individual variability below 10% was fixed to zero.\n(§6) A linear association between capillary and venous plasma concentrations of all compounds was assumed and modelled using an estimated conversion factor at the population level. Unexplained residual errors were modelled separately for capillary and venous plasma concentrations and implemented as an additive error model on the log-transformed concentrations, equivalent to an exponential error on arithmetic scale."}, "haemoglobin": {"test_system": "haemoglobin", "settings": "G6PD-deficient individual, cited from earlier work"}, "haemoglobin levels": {"test_system": "haemoglobin levels", "assay": "Linear regression of pharmacokinetic parameters against change in haemoglobin; haemoglobin follow-up to 28 days", "format": "in vivo, human (African males, Mali)", "settings": "for Correlation (regression slope) of AUC24 with change in haemoglobin / Correlation (regression slope) of CMAX with change in haemoglobin: slope (95% CI)"}, "[1]": {"settings": "single oral PQ 0.40-0.50 mg/kg; for Half-life (terminal elimination): median (range) in Table 3; for CF, proportional conversion factor between capillary and venous drug measurements, population estimate (%RSE): plasma; for MTT, absorption mean transit time, population estimate (%RSE): each compound modelled separately", "description": "as §1, §2, §3, §4, §5, §6"}, "[2]": {"settings": "cited from earlier work"}, "methaemoglobin levels": {"test_system": "methaemoglobin levels", "assay": "Linear regression of pharmacokinetic parameters against change in methaemoglobin", "format": "in vivo, human (African males, Mali)", "settings": "slope (95% CI)"}, "[3]": {"settings": "typical individual 62.5 kg, metabolites dosed as PQ molar dose 1:1"}, "[4]": {"settings": "background statement, literature"}, "[5]": {"settings": "G6PD-deficient individuals (n = 18)"}, "[6]": {"settings": "G6PD-normal individuals (n = 10)"}}, "note": "Like-named read-outs stand apart in the source and are kept apart here.", "data": [{"smiles": "COc1cc(NC(C)CCCN)c2ncccc2c1", "note": "(stereo not drawn) [Primaquine, reference compound]", "values": [{"measurement": "Tmax", "setting": "clinical", "value": 0.872, "unit": "h"}, {"measurement": "half-life", "setting": "clinical; Half-life (terminal elimination), median (range) in Table 3, single oral PQ 0.40-0.50 mg/kg, n = 28", "value": "~7.42", "unit": "h"}, {"measurement": "predicted median reduction of haemoglobin", "setting": "haemoglobin; 0.25 mg/kg SLD-PQ, 90% CI 0.12-0.65", "value": 0.35, "unit": "g/dL"}, {"measurement": "predicted median reduction of haemoglobin", "setting": "haemoglobin; 0.40 mg/kg SLD-PQ, 90% CI 0.21-1.00", "value": 0.56, "unit": "g/dL"}, {"measurement": "haemoglobin decline after PQ administration", "setting": "haemoglobin levels; in vivo", "value": "no significant haemoglobin declines"}, {"measurement": "haematological safety", "setting": "haemoglobin levels; in vivo, 0.5 mg/kg", "value": "haematologically safe"}, {"measurement": "Half-life (terminal elimination)", "setting": "[1]; n = 28", "value": "7.42 (7.04–7.93) h"}, {"measurement": "CF, proportional conversion factor between capillary and venous drug measurements, population estimate (%RSE)", "setting": "[1]", "value": "32.9 (6.89%)"}, {"measurement": "MTT, absorption mean transit time, population estimate (%RSE)", "setting": "[1]; typical individual 62.5 kg", "value": "0.563 (18.7%) h"}, {"measurement": "CL/F, apparent elimination clearance, population estimate (%RSE)", "setting": "[1]; [3]", "value": "15.4 (9.57%) L/h"}, {"measurement": "bioavailability", "setting": "[2]; [4]", "value": 96, "unit": "%"}, {"measurement": "terminal half-life", "setting": "[2]; [4]", "value": "5 to 6", "unit": "h"}]}, {"smiles": "COc1cc(NC(C)CCC(=O)O)c2ncccc2c1", "note": "(stereo not drawn) [Carboxy-primaquine]", "values": [{"measurement": "Correlation (regression slope) of AUC24 with change in methaemoglobin", "setting": "methaemoglobin levels; [5]", "value": "-1914 (95% CI: -8430 to 4602) p-value = 0.534 % mHB change per 1 ng·hr/mL"}, {"measurement": "Correlation (regression slope) of CMAX with change in methaemoglobin", "setting": "methaemoglobin levels; [5]", "value": "-49.4 (95% CI: -341 to 242) p-value = 0.719 % mHB change per 1 ng/mL"}, {"measurement": "Correlation (regression slope) of AUC24 with change in methaemoglobin", "setting": "methaemoglobin levels; [6]", "value": "1948 (95% CI: -12127 to 16023) p-value = 0.720 % mHB change per 1 ng·hr/mL"}, {"measurement": "Correlation (regression slope) of CMAX with change in methaemoglobin", "setting": "methaemoglobin levels; [6]", "value": "119 (95% CI: -351 to 589) p-value = 0.521 % mHB change per 1 ng/mL"}, {"measurement": "Correlation (regression slope) of AUC24 with change in haemoglobin", "setting": "haemoglobin levels; [5]", "value": "195 (95% CI: -58.7 to 448) p = 0.123 % HB change per 1 ng·hr/mL"}, {"measurement": "Correlation (regression slope) of CMAX with change in haemoglobin", "setting": "haemoglobin levels; [5]", "value": "9.27 (95% CI: -1.25 to 19.8) p = 0.0803 % HB change per 1 ng/mL"}, {"measurement": "Correlation (regression slope) of AUC24 with change in haemoglobin", "setting": "haemoglobin levels; [6]", "value": "-206 (95% CI: -555 to 143) p = 0.210 % HB change per 1 ng·hr/mL"}, {"measurement": "Correlation (regression slope) of CMAX with change in haemoglobin", "setting": "haemoglobin levels; [6]", "value": "-4.63 (95% CI: -18.4 to 9.13) p = 0.460 % HB change per 1 ng/mL"}, {"measurement": "Half-life (terminal elimination)", "setting": "[1]; n = 28", "value": "469 (325–1870) h"}, {"measurement": "AUC24, area under the concentration-time curve up to 24 h", "setting": "[1]; median (range), n = 28", "value": "8030 (1490–12,800) h × ng/mL"}, {"measurement": "CMAX, maximum concentration", "setting": "[1]; median (range), n = 28", "value": "338 (74.3–546) ng/mL"}, {"measurement": "TMAX, time to maximum concentration", "setting": "[1]; median (range), n = 28", "value": "4.57 (2.19–18.1) h"}, {"measurement": "CF, proportional conversion factor between capillary and venous drug measurements, population estimate (%RSE)", "setting": "[1]", "value": "69.1 (3.83%)"}, {"measurement": "terminal elimination half-life", "setting": "[1]; sampling only to 24 h", "value": "approximately 19.5 days"}, {"measurement": "MTT, absorption mean transit time, population estimate (%RSE)", "setting": "[1]; typical individual 62.5 kg", "value": "1.24 (11.7%) h"}, {"measurement": "CL/F, apparent elimination clearance, population estimate (%RSE)", "setting": "[1]; [3]", "value": "0.129 (28.5%) L/h"}, {"measurement": "VC/F, apparent volume of distribution of the central compartment, population estimate (%RSE)", "setting": "[1]; [3]", "value": "93.3 (7.00%) L"}, {"measurement": "terminal half-life previously reported", "setting": "[2]; healthy volunteers", "value": 15.6, "unit": "h"}]}]}
